From the NIST ThermoML archive (doi:10.1016/j.jct.2019.02.012)

Assay: mn = molality of the nth substance listed, in mol/kg
Details: 100 kPa, Liquid, Pycnometric method

O=C(O)[C@@H]1CCCN1 [L-proline] + O
mass density [kg/m3]
Details | 298.15 K | 303.15 K | 308.15 K | 313.15 K | 318.15 K
m1 = 0.025 | 997.86 | 996.45 | 994.82 | 992.99 | 991.02
m1 = 0.05 | 998.65 | 997.24 | 995.6 | 993.77 | 991.79
m1 = 0.075 | 999.43 | 998.01 | 996.37 | 994.53 | 992.55
m1 = 0.1 | 1000.2 | 998.77 | 997.12 | 995.28 | 993.29
m1 = 0.125 | 1000.96 | 999.52 | 997.86 | 996.01 | 994.02

CN(C)C(=N)NC(=N)N.Cl [N,N-dimethylimidodicarbonimidic diamide hydrochloride] + O
mass density [kg/m3]
Details | 298.15 K | 303.15 K | 308.15 K | 313.15 K | 318.15 K
m1 = 0.05 | 998.89 | 997.46 | 995.83 | 993.99 | 992.01
m1 = 0.1 | 1000.77 | 999.32 | 997.67 | 995.82 | 993.83
m1 = 0.15 | 1002.66 | 1001.21 | 999.56 | 997.69 | 995.69
m1 = 0.2 | 1004.6 | 1003.12 | 1001.46 | 999.59 | 997.6
